Results from PMC5218480 (PLoS ONE, 2017).

Tested on: MV-4-11 cells
Experiment: Gene expression microarray analysis (Affymetrix PrimeView) and GSEA
Type: cell-based, human
Parameters: RFU PODN (11730768_x_at) / Fold change /veh PODN (11730768_x_at) / RFU LINC00158 (11744669_a_at) / Fold change /veh LINC00158 (11744669_a_at) / RFU DUSP10 (11751237_a_at) / Fold change /veh DUSP10 (11751237_a_at) / RFU ID3 (11757404_x_at) / Fold change /veh ID3 (11757404_x_at) / RFU PLEKHG5 (11737974_s_at) / Fold change /veh PLEKHG5 (11737974_s_at) / RFU LRRC4B (11730491_at) / Fold change /veh LRRC4B (11730491_at) / RFU GIMAP4 (11747438_a_at) / Fold change /veh GIMAP4 (11747438_a_at) / RFU KRT8 (11758183_x_at) / Fold change /veh KRT8 (11758183_x_at) / RFU CNN1 (11734310_a_at) / Fold change /veh CNN1 (11734310_a_at) / RFU VPS37D (11726825_at) / Fold change /veh VPS37D (11726825_at) / RFU C10orf10 (11716522_x_at) / Fold change /veh C10orf10 (11716522_x_at) / RFU KIR2DL2 /// KIR2DL4 /// KIR2DL5A /// KIR2DL5B /// KIR2DS1 /// KIR2DS2 /// KIR2DS3 /// KIR2DS4 /// KIR3DL3 /// KIR3DL3 /// KIR3DS1 (11738374_at) / Fold change /veh KIR2DL2 /// KIR2DL4 /// KIR2DL5A /// KIR2DL5B /// KIR2DS1 /// KIR2DS2 /// KIR2DS3 /// KIR2DS4 /// KIR3DL3 /// KIR3DL3 /// KIR3DS1 (11738374_at) / RFU C1QL1 (11718748_at) / Fold change /veh C1QL1 (11718748_at) / RFU TMPRSS4 (11747572_a_at) / Fold change /veh TMPRSS4 (11747572_a_at) / RFU HAMP (11756126_x_at) / Fold change /veh HAMP (11756126_x_at) / RFU RNFT2 (11725882_a_at) / Fold change /veh RNFT2 (11725882_a_at) / RFU NR4A2 (11747474_a_at) / Fold change /veh NR4A2 (11747474_a_at) / RFU ABCC12 (11746883_a_at) / Fold change /veh ABCC12 (11746883_a_at) / RFU TMEM136 (11760407_x_at) / Fold change /veh TMEM136 (11760407_x_at) / RFU CLDN22 /// WWC2 (11732394_at) / Fold change /veh CLDN22 /// WWC2 (11732394_at) / RFU HLA-DPB1 (11760878_x_at) / Fold change /veh HLA-DPB1 (11760878_x_at) / RFU SPINT1 (11716480_a_at) / Fold change /veh SPINT1 (11716480_a_at) / RFU GAP43 (11754022_s_at) / Fold change /veh GAP43 (11754022_s_at) / RFU A4GNT (11735810_at) / Fold change /veh A4GNT (11735810_at) / RFU PRB3 (11715151_x_at) / Fold change /veh PRB3 (11715151_x_at) / RFU TUBB4B (11761932_at) / Fold change /veh TUBB4B (11761932_at) / RFU CAPN14 (11732068_a_at) / Fold change /veh CAPN14 (11732068_a_at) / RFU TMCC2 (11721928_a_at) / Fold change /veh TMCC2 (11721928_a_at) / RFU IRGQ (11745062_a_at) / Fold change /veh IRGQ (11745062_a_at) / RFU FAM174B (11720279_a_at) / Fold change /veh FAM174B (11720279_a_at) / RFU TMPRSS4 (11748680_a_at) / Fold change /veh TMPRSS4 (11748680_a_at) / RFU FAM212B (11763350_a_at) / Fold change /veh FAM212B (11763350_a_at) / RFU PLEKHG5 (11743358_a_at) / Fold change /veh PLEKHG5 (11743358_a_at) / RFU ZSCAN30 (11745921_a_at) / Fold change /veh ZSCAN30 (11745921_a_at) / RFU CMKLR1 (11741424_a_at) / Fold change /veh CMKLR1 (11741424_a_at) / RFU LOC101060620 /// MAPK8IP1 (11723275_at) / Fold change /veh LOC101060620 /// MAPK8IP1 (11723275_at) / RFU SPTSSB (11747773_x_at) / Fold change /veh SPTSSB (11747773_x_at) / RFU PRSS12 (11739890_at) / Fold change /veh PRSS12 (11739890_at) / RFU BIN1 (11741810_x_at) / Fold change /veh BIN1 (11741810_x_at) / RFU WNT11 (11732464_a_at) / Fold change /veh WNT11 (11732464_a_at) / RFU C10orf10 (11716521_a_at) / Fold change /veh C10orf10 (11716521_a_at) / RFU C5orf56 (11738089_at) / Fold change /veh C5orf56 (11738089_at) / RFU CYB561 (11721691_x_at) / Fold change /veh CYB561 (11721691_x_at) / RFU ANKRD19P (11752326_a_at) / Fold change /veh ANKRD19P (11752326_a_at) / RFU OR2T12 /// OR2T33 /// OR2T8 (11738714_s_at) / Fold change /veh OR2T12 /// OR2T33 /// OR2T8 (11738714_s_at) / RFU VCAN (11748164_a_at) / Fold change /veh VCAN (11748164_a_at) / RFU JSRP1 (11732532_at) / Fold change /veh JSRP1 (11732532_at) / RFU KRTAP10-11 (11738290_x_at) / Fold change /veh KRTAP10-11 (11738290_x_at) / RFU MYO3A (11730013_a_at) / Fold change /veh MYO3A (11730013_a_at) / RFU EBF3 (11725865_a_at) / Fold change /veh EBF3 (11725865_a_at) / RFU CAMK2N1 (11719241_x_at) / Fold change /veh CAMK2N1 (11719241_x_at) / RFU C5orf56 (11738088_a_at) / Fold change /veh C5orf56 (11738088_a_at) / RFU OLFML3 (11715873_a_at) / Fold change /veh OLFML3 (11715873_a_at) / RFU LOC100653217 /// NTM (11731650_a_at) / Fold change /veh LOC100653217 /// NTM (11731650_a_at) / RFU MAPK11 (11762145_a_at) / Fold change /veh MAPK11 (11762145_a_at) / RFU FIZ1 (11724087_x_at) / Fold change /veh FIZ1 (11724087_x_at) / RFU OASL (11726364_x_at) / Fold change /veh OASL (11726364_x_at) / RFU SOX15 (11748057_x_at) / Fold change /veh SOX15 (11748057_x_at) / RFU CD79A (11719716_a_at) / Fold change /veh CD79A (11719716_a_at) / RFU HIST1H1D (11736915_at) / Fold change /veh HIST1H1D (11736915_at) / RFU CASKIN2 (11723855_a_at) / Fold change /veh CASKIN2 (11723855_a_at) / RFU LOC730098 (11760151_x_at) / Fold change /veh LOC730098 (11760151_x_at) / RFU OR4N2 (11742367_at) / Fold change /veh OR4N2 (11742367_at) / RFU PRRT2 (11749266_a_at) / Fold change /veh PRRT2 (11749266_a_at) / RFU SNX32 (11753110_a_at) / Fold change /veh SNX32 (11753110_a_at) / RFU CDHR5 (11726645_a_at) / Fold change /veh CDHR5 (11726645_a_at) / RFU RCAN1 (11760418_a_at) / Fold change /veh RCAN1 (11760418_a_at) / RFU FAM167A (11723789_a_at) / Fold change /veh FAM167A (11723789_a_at) / RFU FAM26E (11764081_at) / Fold change /veh FAM26E (11764081_at) / RFU ISYNA1 (11749810_s_at) / Fold change /veh ISYNA1 (11749810_s_at) / RFU ACY1 (11761880_at) / Fold change /veh ACY1 (11761880_at) / RFU 11764098_at / Fold change /veh 11764098_at / RFU SAMD14 (11745864_x_at) / Fold change /veh SAMD14 (11745864_x_at) / RFU NPB (11741838_a_at) / Fold change /veh NPB (11741838_a_at) / RFU TMPRSS6 (11731388_a_at) / Fold change /veh TMPRSS6 (11731388_a_at) / RFU KRTAP10-2 (11738614_at) / Fold change /veh KRTAP10-2 (11738614_at) / RFU ARHGAP8 /// PRR5-ARHGAP8 (11727945_x_at) / Fold change /veh ARHGAP8 /// PRR5-ARHGAP8 (11727945_x_at) / RFU KRTAP5-7 /// NADSYN1 (11734609_at) / Fold change /veh KRTAP5-7 /// NADSYN1 (11734609_at) / RFU RASL12 (11751679_a_at) / Fold change /veh RASL12 (11751679_a_at) / RFU CDKN2B (11736163_a_at) / Fold change /veh CDKN2B (11736163_a_at) / RFU PRF1 (11729649_at) / Fold change /veh PRF1 (11729649_at) / RFU, ZNF638 /// ZNF638-IT1 / Fold change vs veh, ZNF638 /// ZNF638-IT1 / RFU, PANK3 / Fold change vs veh, PANK3 / RFU, SH3YL1 / Fold change vs veh, SH3YL1 / RFU, ZEB2 / Fold change vs veh, ZEB2 / RFU, NRIP1 / Fold change vs veh, NRIP1 / RFU, PTTG1IP / Fold change vs veh, PTTG1IP / RFU, CAPN2 / Fold change vs veh, CAPN2 / RFU, MED14 / Fold change vs veh, MED14 / RFU, SNORA58 / Fold change vs veh, SNORA58 / RFU, C1orf63 / Fold change vs veh, C1orf63 / RFU, LRRFIP1 / Fold change vs veh, LRRFIP1 / RFU, NDUFAF7 / Fold change vs veh, NDUFAF7 / RFU, SLC12A2 / Fold change vs veh, SLC12A2 / RFU, IBTK / Fold change vs veh, IBTK / RFU, ESF1 / Fold change vs veh, ESF1 / Fold change vs veh, TMEM50B / RFU, TAOK1 / Fold change vs veh, TAOK1 / RFU, ACBD3 / Fold change vs veh, ACBD3 / RFU, TMA16 / Fold change vs veh, TMA16 / RFU, RWDD3 / Fold change vs veh, RWDD3 / RFU, BCAT1 / Fold change vs veh, BCAT1 / RFU, EDEM3 / Fold change vs veh, EDEM3 / RFU, TMEM33 / Fold change vs veh, TMEM33 / RFU, WDR75 / Fold change vs veh, WDR75 / RFU, AHCTF1 / Fold change vs veh, AHCTF1 / RFU, TFRC / Fold change vs veh, TFRC / RFU, ZDHHC17 / Fold change vs veh, ZDHHC17 / RFU, NOM1 / Fold change vs veh, NOM1 / RFU, ARL8B / Fold change vs veh, ARL8B / RFU, ZBTB11 / Fold change vs veh, ZBTB11 / RFU, TAMM41 / Fold change vs veh, TAMM41 / RFU, KIAA1704 /// LOC100996395 / Fold change vs veh, KIAA1704 /// LOC100996395 / RFU, ING1 / Fold change vs veh, ING1 / RFU, TRMT61B / Fold change vs veh, TRMT61B / RFU, FUBP3 / Fold change vs veh, FUBP3 / RFU, TP53 / Fold change vs veh, TP53 / RFU, TNKS2 / Fold change vs veh, TNKS2 / RFU, ZFP14 / Fold change vs veh, ZFP14 / RFU, ACTR2 / Fold change vs veh, ACTR2 / RFU, PPP3R1 / Fold change vs veh, PPP3R1 / RFU, PIK3R1 / Fold change vs veh, PIK3R1 / RFU, HNRNPA1 / Fold change vs veh, HNRNPA1 / RFU, RNF170 / Fold change vs veh, RNF170 / RFU, ZNF28 / Fold change vs veh, ZNF28 / RFU, RNGTT / Fold change vs veh, RNGTT / RFU, OGT / Fold change vs veh, OGT / RFU, BRD1 / Fold change vs veh, BRD1 / RFU, MARS / Fold change vs veh, MARS / RFU, ZNF655 / Fold change vs veh, ZNF655 / RFU, FAHD1 / Fold change vs veh, FAHD1 / RFU, BDP1 / Fold change vs veh, BDP1 / RFU, LRRCC1 / Fold change vs veh, LRRCC1 / RFU, ARID1A / Fold change vs veh, ARID1A / RFU, ZNF146 / Fold change vs veh, ZNF146 / RFU, ZNF330 / Fold change vs veh, ZNF330 / RFU, GPN3 / Fold change vs veh, GPN3 / RFU, C9orf123 / Fold change vs veh, C9orf123 / RFU, N4BP2L2 / Fold change vs veh, N4BP2L2 / RFU, ARFIP1 / Fold change vs veh, ARFIP1 / RFU, FAM179B / Fold change vs veh, FAM179B / RFU, BCL10 / Fold change vs veh, BCL10 / RFU, UHRF1BP1L / Fold change vs veh, UHRF1BP1L / RFU, BET1 / Fold change vs veh, BET1 / RFU, CNOT2 / Fold change vs veh, CNOT2 / RFU, ZNF268 / Fold change vs veh, ZNF268 / Fold change vs veh, ZNF507 / RFU, DGCR2 / Fold change vs veh, DGCR2 / RFU, WDSUB1 / Fold change vs veh, WDSUB1 / Fold change vs veh, HSP90B1 /// MIR3652 / RFU, ADSS / Fold change vs veh, ADSS / RFU, GK / Fold change vs veh, GK / RFU, ZNF148 / Fold change vs veh, ZNF148 / RFU, TAF9 / Fold change vs veh, TAF9 / RFU, SLC1A5 / Fold change vs veh, SLC1A5 / RFU, SLMO2 / Fold change vs veh, SLMO2 / RFU, ABCC4 / Fold change vs veh, ABCC4 / RFU, LOC101060439 /// RAP1B / Fold change vs veh, LOC101060439 /// RAP1B / RFU, RFX7 / Fold change vs veh, RFX7 / RFU, GTPBP10 / Fold change vs veh, GTPBP10 / RFU, CNEP1R1 / Fold change vs veh, CNEP1R1 / RFU, BIVM-ERCC5 /// ERCC5 / Fold change vs veh, BIVM-ERCC5 /// ERCC5 / RFU, ILF3 / Fold change vs veh, ILF3 / RFU 11762660_at / Fold change /veh 11762660_at / RFU VCAN (11757783_s_at) / Fold change /veh VCAN (11757783_s_at) / RFU DDX43 (11728927_at) / Fold change /veh DDX43 (11728927_at) / RFU KRT8 (11758188_x_at) / Fold change /veh KRT8 (11758188_x_at) / RFU NKD1 (11759106_at) / Fold change /veh NKD1 (11759106_at) / RFU SRD5A1 (11742802_a_at) / Fold change /veh SRD5A1 (11742802_a_at) / RFU TPSAB1 /// TPSB2 (11721975_s_at) / Fold change /veh TPSAB1 /// TPSB2 (11721975_s_at) / RFU GSTM3 (11746129_a_at) / Fold change /veh GSTM3 (11746129_a_at) / RFU IL23R (11737362_x_at) / Fold change /veh IL23R (11737362_x_at) / RFU TMEM51 (11727254_a_at) / Fold change /veh TMEM51 (11727254_a_at) / RFU PIWIL2 (11732686_x_at) / Fold change /veh PIWIL2 (11732686_x_at) / RFU ORM1 (11744905_x_at) / Fold change /veh ORM1 (11744905_x_at) / RFU CCDC152 (11743942_at) / Fold change /veh CCDC152 (11743942_at) / RFU ECM1 (11717891_a_at) / Fold change /veh ECM1 (11717891_a_at) / RFU IL23R (11748794_a_at) / Fold change /veh IL23R (11748794_a_at) / RFU TNFAIP8L3 (11732012_x_at) / Fold change /veh TNFAIP8L3 (11732012_x_at) / RFU MBOAT4 (11741988_at) / Fold change /veh MBOAT4 (11741988_at) / RFU 11764193_at / Fold change /veh 11764193_at / RFU TMEM53 (11763286_at) / Fold change /veh TMEM53 (11763286_at) / RFU MAGEB2 (11727129_at) / Fold change /veh MAGEB2 (11727129_at) / RFU TMEM200A (11744735_a_at) / Fold change /veh TMEM200A (11744735_a_at) / RFU CCDC152 (11751479_a_at) / Fold change /veh CCDC152 (11751479_a_at) / RFU FAM211A (11726209_a_at) / Fold change /veh FAM211A (11726209_a_at) / RFU RGS16 (11746705_a_at) / Fold change /veh RGS16 (11746705_a_at) / RFU VCAN (11755009_s_at) / Fold change /veh VCAN (11755009_s_at) / RFU RHOB (11743442_s_at) / Fold change /veh RHOB (11743442_s_at) / RFU RGS16 (11720943_a_at) / Fold change /veh RGS16 (11720943_a_at) / RFU RGS16 (11720944_at) / Fold change /veh RGS16 (11720944_at) / RFU, VPS4B / Fold change vs veh, VPS4B / RFU, CREB1 / Fold change vs veh, CREB1 / RFU, DNAJC13 / Fold change vs veh, DNAJC13 / RFU, GNAQ / Fold change vs veh, GNAQ / RFU, CDK5R1 / Fold change vs veh, CDK5R1 / RFU, ZRANB3 / Fold change vs veh, ZRANB3 / RFU, CUL4A / Fold change vs veh, CUL4A / RFU, CCNY / Fold change vs veh, CCNY / RFU, UFL1 / Fold change vs veh, UFL1 / RFU, COG3 / Fold change vs veh, COG3 / RFU, DIAPH2 / Fold change vs veh, DIAPH2 / RFU, SKA2 / Fold change vs veh, SKA2 / RFU, AFF3 / Fold change vs veh, AFF3 / RFU, LMF1 / Fold change vs veh, LMF1 / RFU, IPO11 / Fold change vs veh, IPO11 / RFU, DFFB / Fold change vs veh, DFFB / RFU, FOXP1 / Fold change vs veh, FOXP1 / RFU, CARD8 / Fold change vs veh, CARD8 / RFU, STRN3 / Fold change vs veh, STRN3 / RFU, ADK / Fold change vs veh, ADK / RFU, RASSF2 / Fold change vs veh, RASSF2 / RFU, WIPF1 / Fold change vs veh, WIPF1 / RFU, LARP1B / Fold change vs veh, LARP1B / RFU, RASA1 / Fold change vs veh, RASA1 / RFU, RB1 / Fold change vs veh, RB1 / RFU, PPFIA1 / Fold change vs veh, PPFIA1 / RFU, MAT2A / Fold change vs veh, MAT2A / RFU, CCT5 / Fold change vs veh, CCT5 / RFU, WDR92 / Fold change vs veh, WDR92 / RFU, CUX1 / Fold change vs veh, CUX1 / RFU, TTC7A / Fold change vs veh, TTC7A / RFU, TMEM135 / Fold change vs veh, TMEM135 / RFU, DEPTOR / Fold change vs veh, DEPTOR / RFU, CPM / Fold change vs veh, CPM / RFU, DNAJB6 / Fold change vs veh, DNAJB6 / RFU, CACNA2D3 / Fold change vs veh, CACNA2D3 / RFU, DTX4 / Fold change vs veh, DTX4 / RFU, TFCP2 / Fold change vs veh, TFCP2 / RFU, GMCL1 /// GMCL1P1 / Fold change vs veh, GMCL1 /// GMCL1P1 / RFU, AEBP2 / Fold change vs veh, AEBP2 / RFU, SNHG1 /// SNORD22 /// SNORD25 /// SNORD26 /// SNORD27 /// SNORD28 /// SNORD29 /// SNORD31 / Fold change vs veh, SNHG1 /// SNORD22 /// SNORD25 /// SNORD26 /// SNORD27 /// SNORD28 /// SNORD29 /// SNORD31 / Fold change (Aza/veh), C12orf56 (ProbeSet 11735607_a_at) / Fold change (ACY-1035/veh), C12orf56 (ProbeSet 11735607_a_at) / Fold change (Aza/veh), FGFR1OP (ProbeSet 11751329_s_at) / Fold change (ACY-1035/veh), FGFR1OP (ProbeSet 11751329_s_at) / Fold change (Aza/veh), VPS36 (ProbeSet 11739960_a_at) / Fold change (ACY-1035/veh), VPS36 (ProbeSet 11739960_a_at) / RFU SYPL1 (11715823_x_at) / Fold change /veh SYPL1 (11715823_x_at) / RFU IGFBP7 (11715501_s_at) / Fold change /veh IGFBP7 (11715501_s_at) / RFU REEP3 (11722064_at) / Fold change /veh REEP3 (11722064_at) / RFU IGLL1 (11728026_x_at) / Fold change /veh IGLL1 (11728026_x_at): dose or concentration left out as unconfirmed
Conditions: ProbeSet 11730501_a_at; LIST D

In the case of `Nc1ccc(-c2cccs2)cc1NC(=O)c1ccc2c(c1)cc(C1CC1)n2CCN1CCOCC1` [ACY-1035], the “Fold change vs veh, CACNA2D3” value is reported as 1.05.
